Laboratory results reported in US20140039044A1, “Hydroxylated Polymethoxyflavone Compositions” (WLLGEN, INC., priority 2006, published 2014).

Assays:
Type in all cases: cell-based, human
[1] = test system: Ca^2+ influx in MCF-7 cells; assay: Ca2+ influx (Mn2+ entry rate, fura-2 quench); conditions: 25 μM
Description: (§1) To evaluate Ca^2+ influx from the extracellular space, the Mn^2+ entry rate, as a reporter of Ca^2+ influx, was measured. The images were recorded at excitation of 360 nm (the fura-2 isosbestic point) and 2 mM of extracellular Mn^2+. The rates of Ca^2+ entry were estimated from the slope of the liner portion of curves of the fura-2 fluorescence quench by Mn^2+. To evaluate Ca^2+ release from the intracellular stores, cells grown on coverslips were placed in D-PBS, and the mobilizer of the endoplasmic reticulum Ca^2+-stores, thapsigargin (1 μM), was added after recording the basal [Ca^2+]i. The peak values of the [Ca^2+]i increase, indicating the filling level of the Ca^2+-stores, were measured with fura-2.
(§2) To investigate mechanism of a sustained increase in [Ca^2+]i after treatment with PMFs, the rates of the background Ca^2+ influx from the extracellular space and the magnitudes of Ca^2+ release from the endoplasmic reticulum stores with thapsigargin were measured in the treated cells using methods described above.
(§3) In FIG. 11A through 11D, the concentration for each PMF was as follows: compound 4: 6.25 μM; compound 5: 12.5 μM; compound 6: 25 μM; and compound 7: 25 μM. […] The Ca^2+ entry rates (C, D) are presented as tangents of the linear portions of the fura-2 quench curves. Data in panel C are presented as means±SE for control cells or cells treated with PMFs 3 days (black bars) or 6 days (gray bars). […] Mn^2+ or thapsigargin was added after recording the basal level of fluorescence or basal [Ca^2+]i for 30-60 s.

HT-29 cells [2] = assay: Apoptotic ratio by propidium iodide flow cytometry (AC50); conditions: read-out: Apoptosis-inducing AC50
How it was run: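 HT-29 cells (2×10^5) were treated with compound for 24 h, then fixed in ice-cold ethanol overnight and treated with Triton X-100/RNase at 37 °C for 30 min. They were stained with propidium iodide (50 μg/mL solution) on ice for 30 min. The apoptotic fraction was measured from PI-DNA fluorescence by flow cytometry, and AC50 was reported.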

AGS cells = assay: Cell cycle distribution by flow cytometry; conditions: 24 h, Table 11
How it was run: (§4)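 Human cancer cells (2×10^5 per dish) exposed 24 h to compound at 5–100 μM, or DMSO. Cells ethanol-fixed at −20° C overnight, RNase/Triton-treated at 37° C for 30 min, then stained with propidium iodide. DNA content read by FACScan flow cytometry to give phase distribution.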

COLO205 cells = assay: Cell cycle distribution by flow cytometry; conditions: COLO205 cells, 24 h, Table 12
How it was run: as §4

HT-29 cells [3] = assay: Cell cycle distribution by flow cytometry; conditions: for Cell Cycle Distribution G0/G1 / Cell Cycle Distribution G2/M / Cell Cycle Distribution S: 24 h
How it was run: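 Cells were treated 24 h with compound at 5, 10, 25, 50 or 100 μM, or with DMSO. They were then ethanol-fixed, RNase-treated and stained with propidium iodide. DNA content was measured by FACScan flow cytometry to give cell-cycle phase distribution.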

HL-60 cells = assay: Cell cycle distribution by flow cytometry; conditions: 24 h; for Cell Cycle Distribution G0/G1 / Cell Cycle Distribution G2/M / Cell Cycle Distribution S: Table 10
How it was run: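 HL-60 cells were treated for 24 h with compound at 5, 10, 25, 50 or 100 μM, or with DMSO. Cells were then ethanol-fixed, treated with Triton X-100/RNase and stained with propidium iodide. DNA content was measured by flow cytometry to give cell-cycle phase distribution.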

[4] = test system: intracellular Ca^2+ stores in MCF-7 cells; assay: Ca2+ mobilization from endoplasmic reticulum stores with thapsigargin (fura-2); conditions: 25 μM
Description: as §1, §2, §3

COc1ccc(-c2oc3c(OC)c(OC)c(OC)c(OC)c3c(=O)c2OC)cc1OC [D, 3,5,6,7,8,3,4-heptamethoxyflavone, reference compound]
Ca^2+ influx, in words [1]: did not significantly increase Ca^2+ influx | AC50 (HT-29 cells [2]): > 100 µM | Cell Cycle Distribution G0/G1 (AGS cells; 5 μM): 37.6 ± 0.92 | Cell Cycle Distribution G2/M (AGS cells; 5 μM): 0.4 ± 0.57 | Cell Cycle Distribution S (AGS cells; 5 μM): 62.4 ± 0.85 | Cell Cycle Distribution G0/G1 (AGS cells; 10 μM): 44.2 ± 0.14 | Cell Cycle Distribution G2/M (AGS cells; 10 μM): 1.3 ± 0.42 | Cell Cycle Distribution S (AGS cells; 10 μM): 55.2 ± 0.42 | Cell Cycle Distribution G0/G1 (AGS cells; 25 μM): 46.6 ± 0.35 | Cell Cycle Distribution G2/M (AGS cells; 25 μM): 4.7 ± 0.14 | Cell Cycle Distribution S (AGS cells; 25 μM): 48.8 ± 0.42 | Cell Cycle Distribution G0/G1 (AGS cells; 50 μM): 48.0 ± 0.14 | Cell Cycle Distribution G2/M (AGS cells; 50 μM): 6.9 ± 0.42 | Cell Cycle Distribution S (AGS cells; 50 μM): 45.7 ± 0.35 | Cell Cycle Distribution G0/G1 (AGS cells; 100 μM): 63.2 ± 0.78 | Cell Cycle Distribution G2/M (AGS cells; 100 μM): 4.0 ± 0.14 | Cell Cycle Distribution S (AGS cells; 100 μM): 33.0 ± 0.49 | Cell Cycle Distribution G0/G1 (COLO205 cells; 5 μM): 60.81 ± 0.62 | Cell Cycle Distribution G2/M (COLO205 cells; 5 μM): 0.04 ± 0.05 | Cell Cycle Distribution S (COLO205 cells; 5 μM): 39.16 ± 0.67 | Cell Cycle Distribution G0/G1 (COLO205 cells; 10 μM): 60.58 ± 0.57 | Cell Cycle Distribution G2/M (COLO205 cells; 10 μM): 0.40 ± 0.04 | Cell Cycle Distribution S (COLO205 cells; 10 μM): 39.02 ± 0.61 | Cell Cycle Distribution G0/G1 (COLO205 cells; 25 μM): 61.91 ± 0.35 | Cell Cycle Distribution G2/M (COLO205 cells; 25 μM): 9.28 ± 0.59 | Cell Cycle Distribution S (COLO205 cells; 25 μM): 28.82 ± 0.23 | Cell Cycle Distribution G0/G1 (COLO205 cells; 50 μM): 68.87 ± 1.53 | Cell Cycle Distribution G2/M (COLO205 cells; 50 μM): 6.10 ± 2.64 | Cell Cycle Distribution S (COLO205 cells; 50 μM): 25.03 ± 1.12 | Cell Cycle Distribution G0/G1 (COLO205 cells; 100 μM): 75.17 ± 0.05 | Cell Cycle Distribution G2/M (COLO205 cells; 100 μM): 5.72 ± 0.64 | Cell Cycle Distribution S (COLO205 cells; 100 μM): 19.12 ± 0.69 | Cell Cycle Distribution G0/G1 (HT-29 cells [3]; 5 μM): 67.79 ± 0.17 | Cell Cycle Distribution G2/M (HT-29 cells [3]; 5 μM): 7.56 ± 0.23 | Cell Cycle Distribution S (HT-29 cells [3]; 5 μM): 24.66 ± 0.06 | Cell Cycle Distribution G0/G1 (HT-29 cells [3]; 10 μM): 57.61 ± 0.69 | Cell Cycle Distribution G2/M (HT-29 cells [3]; 10 μM): 10.41 ± 0.45 | Cell Cycle Distribution S (HT-29 cells [3]; 10 μM): 30.98 ± 1.18 | Cell Cycle Distribution G0/G1 (HT-29 cells [3]; 25 μM): 76.11 ± 1.56 | Cell Cycle Distribution G2/M (HT-29 cells [3]; 25 μM): 9.04 ± 2.77 | Cell Cycle Distribution S (HT-29 cells [3]; 25 μM): 14.89 ± 1.21 | Cell Cycle Distribution G0/G1 (HT-29 cells [3]; 50 μM): 77.31 ± 2.82 | Cell Cycle Distribution G2/M (HT-29 cells [3]; 50 μM): 12.21 ± 0.74 | Cell Cycle Distribution S (HT-29 cells [3]; 50 μM): 20.49 ± 2.09 | Cell Cycle Distribution G0/G1 (HT-29 cells [3]; 100 μM): 80.66 ± 0.01 | Cell Cycle Distribution G2/M (HT-29 cells [3]; 100 μM): 3.79 ± 0.43 | Cell Cycle Distribution S (HT-29 cells [3]; 100 μM): 15.57 ± 0.43 | Cell cycle arrest, in words (HT-29 cells [3]; 5-100 μM, 24 h exposure): significant accumulation of cells in G1 phase | Cell Cycle Distribution G0/G1 (HL-60 cells; 5 μM): 50.66 ± 1.20 | Cell Cycle Distribution G2/M (HL-60 cells; 5 μM): 4.88 ± 0.49 | Cell Cycle Distribution S (HL-60 cells; 5 μM): 44.46 ± 0.49 | Cell Cycle Distribution G0/G1 (HL-60 cells; 10 μM): 52.79 ± 0.99 | Cell Cycle Distribution G2/M (HL-60 cells; 10 μM): 5.09 ± 0.35 | Cell Cycle Distribution S (HL-60 cells; 10 μM): 42.12 ± 0.49 | Cell Cycle Distribution G0/G1 (HL-60 cells; 25 μM): 57.63 ± 0.14 | Cell Cycle Distribution G2/M (HL-60 cells; 25 μM): 0.09 ± 0.71 | Cell Cycle Distribution S (HL-60 cells; 25 μM): 42.28 ± 0.57 | Cell Cycle Distribution G0/G1 (HL-60 cells; 50 μM): 80.79 ± 0.71 | Cell Cycle Distribution G2/M (HL-60 cells; 50 μM): 0.21 ± 0.42 | Cell Cycle Distribution S (HL-60 cells; 50 μM): 19.00 ± 0.78 | Cell Cycle Distribution G0/G1 (HL-60 cells; 100 μM): 84.06 ± 0.57 | Cell Cycle Distribution G2/M (HL-60 cells; 100 μM): 0.47 ± 0.21 | Cell Cycle Distribution S (HL-60 cells; 100 μM): 15.47 ± 1.06 | Cell cycle arrest, in words (HL-60 cells; 25-100 μM): significant G1 arrest | Filling of the endoplasmic reticulum Ca^2+ stores, in words [4]: did not affect the filling of the endoplasmic reticulum Ca^2+ stores
